Reference: article PMC8320897, “Inhibition of PI3K and MAPK pathways along with KIT inhibitors as a strategy to overcome drug resistance in gastrointestinal stromal tumors” (PLoS ONE, 2021)

Tests used:
[1] = test system: GIST882; test: Cell proliferation assay (Cell Counting Kit-8), drug screen; assay type: cell-based; conditions: Homo sapiens, GIST882; cell viability after 72 hours of treatment; read-out: IC50 GIST882
[2] = test system: p-Akt; test: Immunoblot analysis of p-Akt; assay type: cell-based; conditions: 100 nM, 24 h, all cell lines tested, western blot
[3] = test system: GIST-T1; test: Cell proliferation assay (Cell Counting Kit-8), drug screen; assay type: cell-based, human; conditions: Homo sapiens, GISTT1; cell viability after 72 hours of treatment; read-out: IC50 GIST-T1
[4] = test system: GIST-T1/10R; test: Cell proliferation assay (Cell Counting Kit-8); assay type: cell-based, human; conditions: Homo sapiens, GISTT1; cell viability after 72 hours of treatment; read-out: IC50 T1-10R
[5] = test system: GIST-T1/670; test: Caspase 3/7 apoptosis assay; assay type: cell-based, human; conditions: GIST-T1/670, 48 h, single agent
Excerpt: (§1) Inhibitor concentrations used were as mentioned in figure legends.
(§2) Fig 4 Combined Inhibition of KIT, PI3K and MAPK signaling pathways induces apoptosis in GIST cells. […] The data is represented as percent increase over untreated cells; each column represents mean of triplicates. […] (***p<0.0001); (**p<0.001); (*p<0.05).

[6] = test system: GIST-T1/670; test: Cell proliferation assay (Cell Counting Kit-8); assay type: cell-based, human; conditions: for IC50: Homo sapiens, GISTT1, cell viability after 72 hours of treatment, read-out: IC50 T1/670
[7] = test system: p-KIT; test: Immunoblot analysis of p-KIT; assay type: cell-based; conditions: 100 nM, GIST882, 24 h, western blot
Procedure: (C) GIST882 cells were treated with the indicated inhibitor concentrations for 24 h and cell lysates were run on SDS-PAGE followed by immunoblotting to detect the indicated proteins. Data is representative of two independent experiments.

[8] = test system: p-MAPK; test: Immunoblot analysis of p-MAPK (p-ERK); assay type: cell-based; conditions: GIST-T1, IM 1 μM, 24 h, western blot
[9] = test system: GIST-T1/10R; test: Caspase 3/7 apoptosis assay; assay type: cell-based, human; conditions: 48 h, single agent
Excerpt: as §1, §2

[10] = test system: GIST-T1; test: Caspase 3/7 apoptosis assay; assay type: cell-based, human; conditions: GIST-T1, 48 h, single agent
Excerpt: as §1, §2

[11] = test system: metastatic GIST; conditions: cited from earlier work
[12] = test system: imatinib-resistant cell lines; test: Caspase 3/7 apoptosis assay of screen hits; assay type: cell-based; conditions: sorafenib 500 nM; both imatinib-resistant cell lines
Procedure: (§3) Around 10,000 cells/well were plated in complete media in 96-well white flat-bottom plates and therapeutic compounds were added 24 hours later. Apoptosis was evaluated by measuring caspase-3/7 activity using Caspase-Glo 3/7 Assay System (Promega, WI, USA) after 24 and 48 h of treatment with inhibitors. […] Inhibitor concentrations used were as mentioned in figure legends.
(§4) The data is represented as % of control; each bar represents the mean of triplicates. […] Cells were treated with inhibitors at indicated concentrations for 24 h.

[13] = test system: imatinib sensitive and resistant cell lines; test: Caspase 3/7 apoptosis assay of screen hits; conditions: 24 h and 48 h; irinotecan 0.5 μM, sorafenib 500 nM, compound C 5 μM, triptolide 25 nM
Procedure: as §3, §4

[14] = test system: GIST-T1/670; test: Clonogenic (colony outgrowth) assay after drug removal; assay type: cell-based, human; conditions: single agent, 1 month treatment, 2 weeks drug-free
Procedure: Cells were treated with either IM (1 μM), SU (1 μM), RE (1 μM), GDC (500 nM), PD (500 nM), trametinib (500 nM), either alone or in combination for 1 month with replacement of fresh media with drug every week. Thereafter, cells were washed with PBS twice and fresh media without inhibitors was added and colonies were allowed to grow for 2 more weeks. The colonies were stained with crystal violet and counted. Untreated wells were not revived for extra 2 weeks.
After 1-month duration of treatment, cells were allowed to grow in drug-free media for two weeks before staining with crystal violet.

[15] = test system: GIST cell lines; test: Cell proliferation assay with trametinib; conditions: compared with PD, 72 h
[16] = clinical trials in GIST patients

| SMILES | IC50 [1] | IC50 [3] | IC50 [4] | induction of apoptosis (caspase 3/7 activity) [5] | IC50 [6] | induction of apoptosis (caspase activity) [9] | induction of apoptosis (caspase 3/7 activity) [10] | also measured |
| --- | --- | --- | --- | --- | --- | --- | --- | --- |
| CS(=O)(=O)N1CCN(Cc2cc3nc(-c4cccc5[nH]ncc45)nc(N4CCOCC4)c3s2)CC1 [GDC-0941] | 500 nM | 300 nM | > 1000 nM | did not induce apoptosis | > 1000 nM |  |  | inhibition of phosphorylation of Akt [2]: inhibits phosphorylation of Akt |
| Cc1ccc(NC(=O)c2ccc(CN3CCN(C)CC3)cc2)cc1Nc1nccc(-c2cccnc2)n1 [Imatinib] |  |  |  | did not induce apoptosis |  | did not show increase in caspase activity | did not induce apoptosis | inhibition of p-KIT [7]: not sufficient to completely inhibit p-KIT; inhibition of downstream MAPK signaling [8]: 50%; stable disease ([11]; KIT/PDGFRA-driven metastatic GIST, share of cases): approximately 85%; time of treatment to secondary resistance mutations ([11]; prolonged exposure): 18–24 months |
| CNC(=O)c1cc(Oc2ccc(NC(=O)Nc3ccc(Cl)c(C(F)(F)F)c3)cc2)ccn1 [Sorafenib] | < 100 nM | 25 nM | 200 nM |  | < 500 nM |  |  | increase in apoptosis (caspase 3/7 activity) [12]: 4–8 fold; cytotoxic effects (caspase 3/7 activity) [13]: ≥ 2 fold; overall progression free survival [11, 16]: < 6 mo; overall response rate [11, 16]: < 10% |
| CCN(CC)CCNC(=O)c1c(C)[nH]c(/C=C2\C(=O)Nc3ccc(F)cc32)c1C [Sunitinib] | < 200 nM | 25 nM | > 10000 nM |  | > 10000 nM | did not induce apoptosis | not effective | suppression of colony outgrowth [14]: effective; time until resistance occurs ([11]; second-line / third-line therapy): 6–12 months; sensitivity of cell line (proliferation) ([6]; GIST-T1/670, S1A Fig): sensitive |
| CC(=O)Nc1cccc(-n2c(=O)n(C3CC3)c(=O)c3c(Nc4ccc(I)cc4F)n(C)c(=O)c(C)c32)c1 [TR, trametinib] |  |  |  |  |  |  |  | inhibition of cell proliferation as a single agent [15]: better at inhibiting cell proliferation than PD |
